Data taken from patent US4732989A, “Substituted alkyl imidazole derivatives” (G. D. Searle & Co., priority 1986, dated 1988).
In brackets after ≈: the same amount, converted by molar mass. Counter-ions that a name gives are not always drawn.

What was measured:
[1] = system: B. Fragilis NCTC 9344; test: MIC/MBC anti-anaerobic screen, strain C; format: cell-based; settings: Bacteroides fragilis, NCTC9344, 48 h, 37° C., read-out: Minimum Inhibitory Concentration (MIC)
Description: (§1) The screening panel utilized in this Example consisted of 5 strains of Bacteroides fragilis. All assays were carried out in 96 well microtitre plates. If an isolate was obtained from either a culture collection or clinical source, the isolate was immediately inoculated into Wilkins-Chalgren broth (Oxoid) and incubated at 37° C. in an anaerobic chamber in an atmosphere of 85% nitrogen, 10% carbon dioxide, and 5% hydrogen for 48 hours. At the end of this time, the viable count was about 10^12 organisms/ml broth. A 1 ml aliquot of each culture was placed in an ampoule and quick frozen in an acetone-dry-ice mixture and stored in liquid nitrogen. When an inoculum was utilized in an assay, one of the ampoules was thawed and diluted with fresh broth to yield a suspension having a count of 5×10^5 organisms/ml. 100 ul of the suspension was inoculated into each well of the microtitre plate. 2 mg of the test compound was dissolved on 0.2 ml of a suitable solvent such as dimethylsulphoxide, polyethylene glycol 200 or methanol. […] After addition of the test solution, the final inoculum level is 10^5 cells/ml. The plates were incubated for 48 hours at 37° C. in the anaerobic chamber. The Minimum Inhibitory Concentration (MIC) was read visually. The MIC is defined as the lowest concentration at which there is no detectable growth. The Minimum Bactericidal Concentration (MBC) was determined by taking a 50 ul aliquot from each well and placing it in fresh medium.

[2] = system: B. Fragilis ATCC 11295; test: MIC/MBC anti-anaerobic screen, strain D; format: cell-based; settings: Bacteroides fragilis, ATCC11295, 48 h, 37° C., read-out: Minimum Inhibitory Concentration (MIC)
Description: as §1

[3] = system: B. Fragilis WS-1; test: MIC/MBC anti-anaerobic screen, strain E; format: cell-based; settings: Bacteroides fragilis, 48 h; for MIC: 37° C., anaerobic, read-out: Minimum Inhibitory Concentration (MIC)
Description: as §1

[4] = system: B. Fragilis NCTC 10581; test: MIC/MBC anti-anaerobic screen, strain A; format: cell-based, Bacteroides fragilis; settings: 37° C.; for MIC: Bacteroides fragilis, NCTC10581, 48 h, read-out: Minimum Inhibitory Concentration (MIC)
Description: as §1

[5] = system: B. Fragilis NCTC 9343; test: MIC/MBC anti-anaerobic screen, strain B; format: cell-based; settings: Bacteroides fragilis, NCTC9343, 48 h, 37° C., read-out: Minimum Inhibitory Concentration (MIC)
Description: as §1

Row | Compound | MIC [1] [µg/mL] | MIC [2] [µg/mL] | MIC [3] [µg/mL] | MIC [4] [µg/mL] | other results
1 | Cc1nccn1CC(C1=NCCN1c1ccc(Cl)cc1Cl)c1ccccc1 (centres unmarked) [Example 21, 1-(2,4-Dichlorophenyl)-4,5-dihydro-2-[2-(2-methylimidazol-1-yl)-1-phenylethyl]imidazole dihydrochloride] | 0.8 | 3.1 | 0.8 | – | –
2 | Clc1ccc(N2CCN=C2C(Cn2ccnc2)c2ccccc2)c(Cl)c1 (centres unmarked) [Example 3, 1-(2,4-Dichlorophenyl)-4,5-dihydro-2-[2-(imidazol-1-yl)-1-phenylethyl]imidazole hydrochloride] | 0.8 | 0.8 | – | 0.8 | MBC ([3]; 99.9% reduction in viable count, read-out: Minimum Bactericidal Concentration (MBC)): 3.1 µg/mL
3 | Clc1ccc(CN2CCN=C2C(Cn2cccn2)c2ccccc2)c(Cl)c1 (centres unmarked) [Example 16, 1-(2,4-Dichlorophenylmethyl)-4,5-dihydro-2-[1-phenyl-2-(pyrazol-1-yl)ethyl]imidazole dihydrochloride] | 3.1 | – | – | 2.5 | –
4 | CSc1nccn1CC(C1=NCCN1c1ccc(Cl)cc1Cl)c1ccccc1 (centres unmarked) [Example 22, 1-(2,4-Dichlorophenyl)-4,5-dihydro-2-[1-phenyl-2-(2-thiomethylimidazol-1-yl)ethyl]imidazole dihydrochloride] | 3.1 | 3.1 | 3.1 | – | –
5 | Cc1ncc([N+](=O)[O-])n1CCO [Metronidazole, reference compound] | – | – | – | – | Minimum Inhibitory Concentration (MIC) ([4]; 48 hours): 0.8 µg/mL
6 | Brc1ccc(N2CCN=C2C(Cn2ccnc2)c2ccccc2)c(Br)c1 (centres unmarked) [Example 2, 1-(2,4-Dibromophenyl)-4,5-dihydro-2-[2-(imidazol-1-yl)-1-phenylethyl]imidazole dihydrochloride] | – | – | 0.8 | 0.8 | MIC [5]: 3.1 µg/mL
7 | Clc1ccccc1N1CCN=C1C(Cn1ccnc1)c1ccccc1 (centres unmarked) [Example 1, 1-(2-Chlorophenyl)-4,5-dihydro-2[2-(imidazol-1-yl)-1-phenylethyl)imidazole] | – | – | – | 3.1 (≈ 8.84 µM) | –
8 | CC1=NCCN1CC(C1=NCCN1c1ccc(Cl)cc1Cl)c1ccccc1 (centres unmarked) [Example 23, 1-(2,4-Dichlorophenyl)-4,5-dihydro-2-[2-(4,5-dihydro-2-methylimidazol-1-yl)-1-phenylethyl]imidazole dihydrochloride] | – | – | 0.8 | – | –
9 | Clc1ccc(CN2CCN=C2C(Cn2ccnc2)c2ccccc2)c(Cl)c1 (centres unmarked) [Example 15, 1-(2,4-Dichlorophenylmethyl)-4,5-dihydro-2-[2-(imidazol-1-yl)-1-phenylethyl]imidazole] | 3.1 (≈ 7.76 µM) | 3.1 (≈ 7.76 µM) | – | 3.1 (≈ 7.76 µM) | MIC [5]: 3.1 µg/mL (≈ 7.76 µM)
10 | CCCCCCCCCCN1CCN=C1C(Cn1ccnc1)c1ccccc1.Cl.Cl (centres unmarked) [Example 26, 1-n-Decyl-4,5-dihydro-2-[2-(imidazol-1-yl)-1-phenylethyl]imidazole dihydrochloride] | 3.1 | 3.1 | 3.1 | – | –
11 | CCCCCCCCN1CCN=C1C(Cn1ccnc1)c1ccccc1 (centres unmarked) [Example 19, 4,5-Dihydro-2-[2-(imidazol-1-yl)-1-phenylethyl]-1-n-octylimidazole dihydrochloride] | – | – | – | – | MIC [5]: 3.1 µg/mL
